Source: PubChem BioAssay (NCI)
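Protocol summary: plate cells (96-well), add compound at 5 concentrations, incubate 48 h, interpolate endpoints linearly. TGI marks complete inhibition of growth.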

How the values were obtained:
Assay in all cases: NCI tumour cell line growth inhibition, 48 h
HT29 colon = system: HT29 colon
CAKI-1 renal = system: CAKI-1 renal
SW-620 colon = system: SW-620 colon
UACC-62 melanoma = system: UACC-62 melanoma
LOX IMVI melanoma = system: LOX IMVI melanoma
A498 renal = system: A498 renal
HOP-62 NSCLC = system: HOP-62 NSCLC
SN12C renal = system: SN12C renal
OVCAR-4 ovarian = system: OVCAR-4 ovarian
SNB-19 CNS = system: SNB-19 CNS
HCT-15 colon = system: HCT-15 colon
MOLT-4 leukemia = system: MOLT-4 leukemia
MDA-MB-435 = system: MDA-MB-435
HOP-92 NSCLC = system: HOP-92 NSCLC
NCI/ADR-RES ovarian = system: NCI/ADR-RES ovarian
NCI-H460 lung = system: NCI-H460 lung
SNB-75 CNS = system: SNB-75 CNS
UACC-257 melanoma = system: UACC-257 melanoma
MALME-3M melanoma = system: MALME-3M melanoma
PC-3 prostate = system: PC-3 prostate
SF-539 CNS = system: SF-539 CNS
U251 CNS = system: U251 CNS
T-47D breast = system: T-47D breast
SK-OV-3 ovarian = system: SK-OV-3 ovarian
IGROV1 ovarian = system: IGROV1 ovarian
MDA-MB-231 breast = system: MDA-MB-231 breast
HS 578T breast = system: HS 578T breast
HCT-116 colon = system: HCT-116 colon
NCI-H226 lung = system: NCI-H226 lung
SF-268 CNS = system: SF-268 CNS
DU-145 prostate = system: DU-145 prostate
COLO 205 colon = system: COLO 205 colon
SK-MEL-2 melanoma = system: SK-MEL-2 melanoma
A549 NSCLC = system: A549 NSCLC
UO-31 renal = system: UO-31 renal
OVCAR-8 ovarian = system: OVCAR-8 ovarian
TK-10 renal = system: TK-10 renal
SR leukemia = system: SR leukemia
BT-549 breast = system: BT-549 breast
HL-60(TB) leukemia = system: HL-60(TB) leukemia
NCI-H522 lung = system: NCI-H522 lung
MDA-N = system: MDA-N
MCF7 breast = system: MCF7 breast
EKVX NSCLC = system: EKVX NSCLC
RXF 393 renal = system: RXF 393 renal
ACHN renal = system: ACHN renal
RPMI-8226 leukemia = system: RPMI-8226 leukemia
OVCAR-5 ovarian = system: OVCAR-5 ovarian
SK-MEL-5 melanoma = system: SK-MEL-5 melanoma
K-562 leukemia = system: K-562 leukemia
SK-MEL-28 melanoma = system: SK-MEL-28 melanoma
CCRF-CEM leukemia = system: CCRF-CEM leukemia
SF-295 CNS = system: SF-295 CNS
786-0 renal = system: 786-0 renal
KM12 colon = system: KM12 colon
NCI-H23 lung = system: NCI-H23 lung
M14 melanoma = system: M14 melanoma
OVCAR-3 ovarian = system: OVCAR-3 ovarian

C/C(=N\NC(=S)N(C)C)c1nc2ncccc2[nH]1
TGI (HT29 colon): > 100 µM | TGI (CAKI-1 renal): 3.75 µM | TGI (SW-620 colon): > 100 µM | TGI (UACC-62 melanoma): 2.7 µM | TGI (LOX IMVI melanoma): > 100 µM | TGI (A498 renal): 69.5 µM | TGI (HOP-62 NSCLC): > 100 µM | TGI (SN12C renal): > 100 µM | TGI (OVCAR-4 ovarian): 10.6 µM | TGI (SNB-19 CNS): 36.1 µM | TGI (HCT-15 colon): > 100 µM | TGI (MOLT-4 leukemia): 9.86 µM | TGI (MDA-MB-435): > 100 µM | TGI (HOP-92 NSCLC): 0.928 µM | TGI (NCI/ADR-RES ovarian): 12.6 µM | TGI (NCI-H460 lung): > 100 µM | TGI (SNB-75 CNS): > 100 µM | TGI (UACC-257 melanoma): 64.5 µM | TGI (MALME-3M melanoma): 6.68 µM | TGI (PC-3 prostate): > 100 µM | TGI (SF-539 CNS): 5.11 µM | TGI (U251 CNS): > 100 µM | TGI (T-47D breast): 14.7 µM | TGI (SK-OV-3 ovarian): 5.53 µM | TGI (IGROV1 ovarian): 70 µM | TGI (MDA-MB-231 breast): > 100 µM | TGI (HS 578T breast): 7.85 µM | TGI (HCT-116 colon): > 100 µM | TGI (NCI-H226 lung): 2.05 µM | TGI (SF-268 CNS): > 100 µM | TGI (DU-145 prostate): > 100 µM | TGI (COLO 205 colon): 23.9 µM | TGI (SK-MEL-2 melanoma): > 100 µM | TGI (A549 NSCLC): > 100 µM | TGI (UO-31 renal): 1.89 µM | TGI (OVCAR-8 ovarian): > 100 µM | TGI (TK-10 renal): > 100 µM | TGI (SR leukemia): > 100 µM | TGI (BT-549 breast): 6.48 µM | TGI (HL-60(TB) leukemia): 1.32 µM | TGI (NCI-H522 lung): 91.7 µM | TGI (MDA-N): > 100 µM | TGI (MCF7 breast): > 100 µM | TGI (EKVX NSCLC): > 100 µM | TGI (RXF 393 renal): > 100 µM | TGI (ACHN renal): 14.7 µM | TGI (RPMI-8226 leukemia): > 100 µM | TGI (OVCAR-5 ovarian): > 100 µM | TGI (SK-MEL-5 melanoma): 1.87 µM | TGI (K-562 leukemia): > 100 µM | TGI (SK-MEL-28 melanoma): > 100 µM

CCOC(=O)c1cc2c3c(c(C(C)=O)c(O)c2[nH]1)N(C(C)=O)CC3
TGI (HT29 colon): > 100 µM | TGI (CAKI-1 renal): > 100 µM | TGI (SW-620 colon): > 100 µM | TGI (UACC-62 melanoma): > 100 µM | TGI (LOX IMVI melanoma): > 100 µM | TGI (A498 renal): > 100 µM | TGI (HOP-62 NSCLC): > 100 µM | TGI (SN12C renal): > 100 µM | TGI (SNB-19 CNS): > 100 µM | TGI (HCT-15 colon): > 100 µM | TGI (MOLT-4 leukemia): > 100 µM | TGI (MDA-MB-435): > 100 µM | TGI (CCRF-CEM leukemia): > 100 µM | TGI (NCI/ADR-RES ovarian): > 100 µM | TGI (NCI-H460 lung): > 100 µM | TGI (SNB-75 CNS): > 100 µM | TGI (UACC-257 melanoma): > 100 µM | TGI (SF-295 CNS): > 100 µM | TGI (MALME-3M melanoma): > 100 µM | TGI (PC-3 prostate): > 100 µM | TGI (SF-539 CNS): > 100 µM | TGI (U251 CNS): > 100 µM | TGI (T-47D breast): > 100 µM | TGI (SK-OV-3 ovarian): > 100 µM | TGI (IGROV1 ovarian): > 100 µM | TGI (MDA-MB-231 breast): > 100 µM | TGI (HS 578T breast): > 100 µM | TGI (HCT-116 colon): > 100 µM | TGI (NCI-H226 lung): > 100 µM | TGI (786-0 renal): > 100 µM | TGI (SF-268 CNS): > 100 µM | TGI (DU-145 prostate): > 100 µM | TGI (COLO 205 colon): > 100 µM | TGI (KM12 colon): > 100 µM | TGI (SK-MEL-2 melanoma): > 100 µM | TGI (NCI-H23 lung): > 100 µM | TGI (UO-31 renal): > 100 µM | TGI (OVCAR-8 ovarian): > 100 µM | TGI (TK-10 renal): > 100 µM | TGI (SR leukemia): > 100 µM | TGI (BT-549 breast): > 100 µM | TGI (M14 melanoma): > 100 µM | TGI (OVCAR-3 ovarian): > 100 µM | TGI (HL-60(TB) leukemia): > 100 µM | TGI (MDA-N): > 100 µM | TGI (MCF7 breast): > 100 µM | TGI (EKVX NSCLC): > 100 µM | TGI (RXF 393 renal): > 100 µM | TGI (ACHN renal): > 100 µM | TGI (RPMI-8226 leukemia): > 100 µM | TGI (OVCAR-5 ovarian): > 100 µM | TGI (SK-MEL-5 melanoma): > 100 µM | TGI (K-562 leukemia): > 100 µM | TGI (SK-MEL-28 melanoma): > 100 µM
